{
  "source": "patent US20170334919A1",
  "about": "“2-((4-AMINO-3-(3-FLUORO-5-HYDROXYPHENYL)-1H-PYRAZOLO[3,4-D]PYRIMIDIN-1 -YL)METHYL)-3-(2-(TRIFLUORO-MET HYL)BENZYL)QUINAZOLIN-4(3H)-ONE DERIVATIVES AND THEIR USE AS PHOSPHOINOSITIDE 3-KINASE INHIBITORS” (RESPIVERT LTD., priority 2013, published 2017)",
  "key": {"[1]": {"test_system": "cigarette smoke-induced cell accumulation and biomarkers in murine BALF", "assay": "Cigarette smoke model", "format": "in vivo, A/J mice", "protocol": "A/J mice (males, 5 weeks old) were exposed to cigarette smoke (4% cigarette smoke, diluted with compressed air) for 30 min/day for 11 days using a Tobacco Smoke Inhalation Experiment System for small animals (Model SIS-CS; Sibata Scientific Technology, Tokyo, Japan). Test substances were administered once daily for 3 days after the final cigarette smoke exposure (intra-nasal dose comprising 35 μL of solution in 50% DMSO/isotonic saline).\nAt 12 hr after administration of the last dose, animals were anesthetized, the trachea was cannulated and bronchial alveolar lavage (BAL) was carried out by the instillation into and then withdawal from the lungs, of PBS (100 mL/kg). Total cell numbers in the BALF samples were measured using a haemocytometer under a phase-contrast microscope. The proportions of alveolar macrophages and neutrophils were determined by FACS analysis using anti-mouse MOMA2-FITC (macrophage) or anti-mouse 7/4 (neutrophil).\nCells were suspended in PBS and were incubated with anti-MOMA2-FITC (2 μg/mL, Catalogue no SM065F, Acris Antibodies GmbH, Herford, Germany) or anti-7/4-FITC (2 μg/mL, Catalogue no CL050F, Acris Antibodies GmbH, Herford, Germany) for 30 min at 30° C., and also counterstained with propidium iodide (2 μg/mL) to allow exclusion of necrotic cells. The cells were washed with PBS, and transferred to FACS tubes. Samples was set in a flow cytometer (ALTRA II; Beckman Coulter Japan, Tokyo, Japan), and a single-parameter FL2 [PMT2] (FITC) histogram with log x-axis was plotted to illustrate relative intensity of FITC.\nData files are stored for subsequent analysis using Kaluza analysis software (ver. 1.2) to calculate the proportion of each cell type. The levels of CXCL1(KC), MCP1, TNFα, IL-17 or osteopontin in BALF were determined using Quentikine® mouse KC, MCP1, TNFα, IL-17 or osteopontin ELISA kit (R&D systems, Inc., Minneapolis, Minn., USA). The presence of malondialdehyde was measured using OxiSelect® TBARS Assay Kit (MDA Quantitation; Cell Biolabs Inc, San Diego, Calif., USA)."}, "[2]": {"test_system": "ovalbumin-induced airway eosinophilia and neutrophilia in ovalbumin sensitized mice", "assay": "Ovalbumin-induced airway eosinophil and neutrophil accumulation in mice", "format": "in vivo, BALB/c mice", "settings": "2 hr prior to final OVA challenge", "protocol": "BALB/c mice (6-8 weeks old) were immunized with OVA (10 μg/mouse i.p.) on days 0 and 7. In order to elicit a local inflammatory response in the lung, mice were repeatedly challenged between days 13-15 with a nebulised solution of ovalbumin (10 mg/mL, 30 min exposure, De Vilibiss Ultraneb 2000). On day 17 each animal received via intra-tracheal administration of either vehicle or test compound 2 hr prior to the final OVA challenge. Animals were anaesthetized 8 hr later before undergoing a tracheotomy. BAL was obtained by instilling PBS (1 mL) into the lungs, which was then withdrawn. This procedure was repeated to provide approximately 2 mL of lavage fluid. Total cell numbers in the BALF samples were measured using a haemocytometer. Cytospin smears of the BALF samples were prepared by centrifugation at 200 rpm for 5 min at RT and stained using a DiffQuik stain system (Dade Behring) for differential cell counts. Cells were counted using oil immersion microscopy. Data is expressed as differential number of cells per mL of […] (mean±S.E.M)."}, "[3]": {"test_system": "LPS-induced airway neutrophilia in rats", "assay": "LPS-induced airway neutrophil accumulation in rats", "format": "in vivo", "protocol": "Non-fasted rats were dosed with either vehicle or the test compound by intra-tracheal administration (dose volume 100 μL) at time points T=−2 h, −8 h, or −12 h with respect to the start of LPS treatment. The LPS solution (0.3 mg/mL) was aerosolised using a De Vibliss ultrasonic nebuliser 2000 (7 mL during 30 min). At eight hr after LPS challenge, the trachea was cannulated and bronchoalveolar lavage fluid (BALF) extracted by infusing and then withdrawing PBS (1 mL) into the lungs via the tracheal catheter. This procedure was repeated to provide approximately 2 mL of lavage fluid.\nTotal cell numbers in the BALF samples were measured using a Countess automated cell counter (Invitrogen). Cytospin smears of the BALF samples were prepared by centrifugation at 1200 rpm for 2 min at RT and stained using a DiffQuik stain system (Dade Behring) for differential cell counts. Cells were counted using oil immersion microscopy. Data are expressed as neutrophil number of cells per mL of BALF (mean±S.E.M)."}, "[4]": {"settings": "CS + Compound (I) 0.02 mg/mL intra-nasal"}, "[5]": {"settings": "CS + Compound (I) 0.2 mg/mL intra-nasal"}, "[6]": {"settings": "CS + Compound (I) 2 mg/mL intra-nasal"}, "[7]": {"settings": "0.2 mg/mL intra-tracheal, pre-dose time 12 h"}},
  "data": [
    {"compound": "COCCOCCOCC#Cc1cccc2nc(Cn3nc(-c4cc(O)cc(F)c4)c4c(N)ncnc43)n(Cc3ccccc3C(F)(F)F)c(=O)c12", "note": "[Compound (I), 2-((4-Amino-3-(3-fluoro-5-hydroxyphenyl)-1H-pyrazolo[3,4-d]pyrimidin-1-yl)methyl)-5-(3-(2-(2-methoxyethoxy)ethoxy)prop-1-yn-1-yl)-3-(2-(trifluoromethyl)benzyl)quinazolin-4(3H)-one]", "values": [
      {"measurement": "Cell numbers in BAL, Macrophages, % inhibition", "setting": "[1]; [4]", "result": 32, "unit": "%"},
      {"measurement": "Cell numbers in BAL, Neutrophils, % inhibition", "setting": "[1]; [4]", "result": "0.2 (26) %"},
      {"measurement": "Cell numbers in BAL, Macrophages, % inhibition", "setting": "[1]; [5]", "result": "0.2 (63) %"},
      {"measurement": "Cell numbers in BAL, Neutrophils, % inhibition", "setting": "[1]; [5]", "result": 54, "unit": "%"},
      {"measurement": "Cell numbers in BAL, Macrophages, % inhibition", "setting": "[1]; [6]", "result": "0.3 (79) %"},
      {"measurement": "Cell numbers in BAL, Neutrophils, % inhibition", "setting": "[1]; [6]", "result": "0.1 (68) %"},
      {"measurement": "potency versus compound A, cigarette-smoke induced cell accumulation in murine BALF", "setting": "[1]; contemporaneous study, FIG. 2", "result": "more potent inhibitor of cigarette-smoke induced cell accumulation in murine BALF than is compound A"},
      {"measurement": "Cell numbers in BALF, Eosinophils, % inhibition", "setting": "[2]; 0.05 mg/mL intra-tracheal", "result": "3.2 (20) %"},
      {"measurement": "Cell numbers in BALF, Neutrophils, % inhibition", "setting": "[2]; 0.05 mg/mL intra-tracheal", "result": "0.4 (18) %"},
      {"measurement": "Cell numbers in BALF, Eosinophils, % inhibition", "setting": "[2]; 0.2 mg/mL intra-tracheal", "result": "0.9 (85) %"},
      {"measurement": "Cell numbers in BALF, Neutrophils, % inhibition", "setting": "[2]; 0.2 mg/mL intra-tracheal", "result": "0.5 (70) %"},
      {"measurement": "Cell numbers in BALF, Eosinophils, % inhibition", "setting": "[2]; 1 mg/mL intra-tracheal", "result": 91, "unit": "%"},
      {"measurement": "Cell numbers in BALF, Neutrophils, % inhibition", "setting": "[2]; 1 mg/mL intra-tracheal", "result": 80, "unit": "%"},
      {"measurement": "Neutrophil numbers in BALF, % inhibition", "setting": "[3]; 0.05 mg/mL intra-tracheal, pre-dose time 2 hr", "result": "2.3 (9) %"},
      {"measurement": "Neutrophil numbers in BALF, % inhibition", "setting": "[3]; 0.2 mg/mL intra-tracheal, pre-dose time 2 hr", "result": "1.6 (58) %"},
      {"measurement": "Neutrophil numbers in BALF, % inhibition", "setting": "[3]; 0.2 mg/mL intra-tracheal, pre-dose time 8 hr", "result": 33, "unit": "%"},
      {"measurement": "Neutrophil numbers in BALF (mean ± SEM)", "setting": "[3]; [7]", "result": "13.6 ± 2.7 ×10^5/mL"},
      {"measurement": "Neutrophil numbers in BALF, % inhibition", "setting": "[3]; [7]", "result": 10, "unit": "%"},
      {"measurement": "Neutrophil numbers in BALF, % inhibition", "setting": "[3]; 1.0 mg/mL intra-tracheal, pre-dose time 2 hr", "result": 73, "unit": "%"}
    ]}
  ]
}
